Results published in patent publication US10316035B2, “Triazolopyridine inhibitors of myeloperoxidase” (BRISTOL-MYERS SQUIBB COMPANY, priority 2015, dated 2019).
pIC50: −log10 of the molar value.

The compounds below were run against T1, myeloperoxidase (MPO) (Homo sapiens, UniProt P05164) (assay: MPO peroxidation assay (Amplex Red assay)). Conditions: MPO peroxidation, potency range class; read-out: Amplex Red IC50.
T1 sequence (P05164 49-745): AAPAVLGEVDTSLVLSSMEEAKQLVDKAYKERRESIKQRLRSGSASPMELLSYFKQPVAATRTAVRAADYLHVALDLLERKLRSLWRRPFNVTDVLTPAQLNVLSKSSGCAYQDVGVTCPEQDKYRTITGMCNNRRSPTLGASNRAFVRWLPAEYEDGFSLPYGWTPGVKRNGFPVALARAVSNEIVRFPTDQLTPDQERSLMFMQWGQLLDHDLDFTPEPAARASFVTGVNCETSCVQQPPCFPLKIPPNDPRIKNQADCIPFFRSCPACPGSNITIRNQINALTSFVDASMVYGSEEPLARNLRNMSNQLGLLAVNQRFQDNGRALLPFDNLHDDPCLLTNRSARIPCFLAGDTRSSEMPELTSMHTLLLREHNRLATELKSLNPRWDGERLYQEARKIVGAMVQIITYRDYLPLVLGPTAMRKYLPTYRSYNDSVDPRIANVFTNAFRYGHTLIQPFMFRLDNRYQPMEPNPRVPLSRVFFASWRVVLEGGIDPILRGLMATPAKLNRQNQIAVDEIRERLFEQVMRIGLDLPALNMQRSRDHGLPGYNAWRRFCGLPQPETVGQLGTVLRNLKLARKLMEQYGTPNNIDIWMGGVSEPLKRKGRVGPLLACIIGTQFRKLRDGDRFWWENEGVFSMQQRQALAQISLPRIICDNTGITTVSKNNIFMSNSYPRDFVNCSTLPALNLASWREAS
Format: biochemical
Procedure, shortened: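 Peroxidase turnover of Amplex Red to fluorescent resorufin (Ex 535/Em 590 nm) was followed for 15 min in 100 mM KPi, pH 7.4, after 10 min room-temperature preincubation of compound with 200 pM enzyme plus 40 nM H2O2. The substrate mix contained 200 μM Amplex Red and 10 mM H2O2. IC50s came from linear-phase rates (180–540 s) fitted with a Hill equation.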

First: NC(=O)CCNC(=O)c1ccc(F)c(COc2cc(N)nc3[nH]nnc23)c1 [Example 170, N-(3-amino-3-oxopropyl)-3-((5-amino-3H-[1,2,3]triazolo[4,5-b]pyridin-7-yloxy)methyl)-4-fluorobenzamide]
Second: CNC(=O)CNC(=O)c1ccc(Cl)c(COc2cc(N)nc3[nH]nnc23)c1 [Example 187, 3-((5-amino-3H-[1,2,3]triazolo [4,5-b]pyridin-7-yloxy)methyl)-4-chloro-N-(2-(methylamino)-2-oxoethyl)benzamide]
The pIC50 of the first is higher: 7.00 to 9.00 for the first, 6.00 to 7.00 for the second. The first is the more potent here.

Compared with `COC(=O)c1ccc(Cl)c(COc2cc(N)nc3[nH]nnc23)c1` [Example 171, Methyl 3-((5-amino-3H-[1,2,3]triazolo[4,5-b]pyridin-7-yloxy)methyl)-4-chlorobenzoate], `CN(C)C(=O)c1ccc(Cl)c(COc2cc(N)nc3[nH]nnc23)c1` [Example 185, 3-((5-amino-3H-[1,2,3]triazolo [4,5-b]pyridin-7-yloxy)methyl)-4-chloro-N,N-dimethylbenzamide] is lower in pIC50: 7.00 to 9.00 for the first, 6.00 to 7.00 for the second. The first is the more potent here.

Compared with `Nc1cc(OCc2cc(C(=O)NCc3ccccc3)ccc2Cl)c2nn[nH]c2n1` [Example 173, 3-((5-amino-3H-[1,2,3]triazolo [4,5-b]pyridin-7-yloxy)methyl)-N-benzyl-4-chlorobenzamide], `Nc1cc(OCc2cc(C(=O)N(CCO)Cc3ccccc3)ccc2Cl)c2nn[nH]c2n1` [Example 183, 3-((5-amino-3H-[1,2,3]triazolo [4,5-b]pyridin-7-yloxy)methyl)-N-benzyl-4-chloro-N-(2-hydroxyethyl)benzamide] is lower in pIC50: 7.00 to 9.00 for the first, 6.00 to 7.00 for the second. The first is the more potent here.

First: CN(C(=O)c1ccc(Cl)c(COc2cc(N)nc3[nH]nnc23)c1)c1ccccc1 [Example 175, 3-((5-amino-3H-[1,2,3]triazolo [4,5-b]pyridin-7-yloxy)methyl)-4-chloro-N-methyl-N-phenylbenzamide]
Second: CN(CC(N)=O)C(=O)c1ccc(Cl)c(COc2cc(N)nc3[nH]nnc23)c1 [Example 189, N-(2-amino-2-oxoethyl)-3-((5-amino-3H-[1,2,3]triazolo[4,5-b]pyridin-7-yloxy)methyl)-4-chloro-N-methylbenzamide]
The pIC50 of the first is higher: 7.00 to 9.00 for the first, 6.00 to 7.00 for the second. The first is the more potent here.

`Nc1cc(OCc2cc(C(=O)N3CCC(O)C3)ccc2Cl)c2nn[nH]c2n1` (centres unmarked) [Example 176, (3-((5-amino-3H-[1,2,3]triazolo [4,5-b]pyridin-7-yloxy)methyl)-4-chlorophenyl)(3-hydroxypyrrolidin-1-yl)methanone] and `Nc1cc(OCc2cc(C(=O)N3CCC3)ccc2Cl)c2nn[nH]c2n1` [Example 182, (3-((5-amino-3H-[1,2,3]triazolo [4,5-b]pyridin-7-yloxy)methyl)-4-chlorophenyl)(azetidin-1-yl)methanone] fall in the same range of pIC50: 6.00 to 7.00 for the first, 6.00 to 7.00 for the second.

`Nc1cc(OCc2cc(C(=O)N3CCC[C@@H]3CO)ccc2Cl)c2nn[nH]c2n1` [Example 178, (R)-(3-((5-amino-3H-[1,2,3]triazolo[4,5-b]pyridin-7-yloxy)methyl)-4-chlorophenyl)(2-(hydroxymethyl)pyrrolidin-1-yl)methanone] and `Nc1cc(OCc2cc(C(=O)N3CCC[C@H]3CO)ccc2Cl)c2nn[nH]c2n1` [Example 179, (S)-(3-((5-amino-3H-[1,2,3]triazolo[4,5-b]pyridin-7-yloxy)methyl)-4-chlorophenyl)(2-(hydroxymethyl)pyrrolidin-1-yl)methanone] fall in the same range of pIC50: 6.00 to 7.00 for the first, 6.00 to 7.00 for the second.

Compared with `CCN(CCO)C(=O)c1ccc(Cl)c(COc2cc(N)nc3[nH]nnc23)c1` [Example 184, 3-((5-amino-3H-[1,2,3]triazolo [4,5-b]pyridin-7-yloxy)methyl)-4-chloro-N-ethyl-N-(2-hydroxyethyl) benzamide], `Nc1cc(OCc2cc(C(=O)NC3CC3)ccc2Cl)c2nn[nH]c2n1` [Example 188, 3-((5-amino-3H-[1,2,3]triazolo [4,5-b]pyridin-7-yloxy)methyl)-4-chloro-N-cyclopropylbenzamide] is higher in pIC50: 6.00 to 7.00 for the first, 7.00 to 9.00 for the second.
